Entries after “also recorded” stand apart in the source; their conditions may differ. Read-outs that look alike come from different tables or passages of the source.
Key:
[1] = tested on: J774 macrophages; assay: Nitrite production by immunostimulated J774 macrophages (endotoxin 24 h, Griess); assay type: cell-based, mouse; conditions: for EC50: Mus musculus, J774, endotoxin 10 μg/ml, 24 h (Table 1), read-out: EC50 for the inhibition of nitrite production by stimulated J774 macrophages
Method: (§1) This example illustrates the effect of selected mercapto derivatives on endotoxin-induced nitrite formation in J774.2 macrophages and on IL-1 gamma-interferon induced nitrite formation in cultured rat arctic smooth muscle cells. J774 macrophage cell lines were obtained from the American Type Culture Collection (ATCC) and were grown using standard methods in Dulbecco's Modified Eagle Medium (DMEM) supplemented with 10% fetal bovine serum, glutamine, penicillin (10,000 U/l) and streptomycin (10,000 U/l). Rat aortic smooth muscle cells (RASM) from Wistar rats were isolated by enzymatic dissociation using standard methods. The cells were positively identified as smooth muscle by indirect immunofluorescent staining for a-actin, using mouse anti-α-actin antibody and anti-mouse IgG fluorescein isothiocyanate (FITC) conjugate. RASM cells were grown in T-75 tissue culture flasks in 50% F12 nutrient medium and 50% Dulbecco's Modified Eagle Medium supplemented with 10% fetal bovine serum, glutamine, penicillin (10,000 U/l) and streptomycin (10,000 U/l). Cells were grown in 96-well plates for measure of nitrite production and cell viability. J774 macrophages were treated with endotoxin (10 μg/ml) for 24 hours; smooth muscle cells were treated with IL-1 (100 U/ml) and gamma-interferon (50 U/ml) for 48 hours.
Concentration of nitrite, the degradation product of NO in the culture medium, was determined by mixing equal volumes of medium with the Griess reagent (1% sulfanilamide/0.1% naphthylethylenediamine dihydrochloride/2.5% H3 PO4). The mixture was incubated for 10 minutes at room temperature to form the chromophore, then optical densities (OD) were determined at 550 nm (OD550). NaNO2 was used as the standard. Spectrophotometric measurements were performed in a dual-wavelength spectrophotometer.

[2] = tested on: J774 macrophages; assay: Mitochondrial respiration (MTT reduction), cell viability of immunostimulated J774 macrophages; assay type: cell-based, mouse
Method: as §1
Mitochondrial respiration, an indicator of cell viability, was assessed by the mitochondrial-dependent reduction of MTT [3-(4,5-dimethylthiazol-2-yl)-2,5-diphenyltetrazolium bromide] to formazan. Cells in 96-well plates were incubated (37° C.) with MTT (0.2 mg/ml for 60 minutes). Culture medium was removed by aspiration and the cells solubilized in dimethylsulfoxide (DMSO) (100 μl). The extent of reduction of MTT to formazan within cells was quantitated by measurement of OD550 using a microplate reader. The calibration curve for the reduction of MTT to formazan was prepared in DMSO. Formazan production by cells was expressed as a percentage of the values obtained from untreated cells.

[3] = molecular target: T1, ecNOS (Bos taurus, UniProt P29473); assay: ecNOS activity from intimal scrapings of fresh bovine aortae (conversion of [3H]-L-arginine to [3H]-L-citrulline); assay type: biochemical
T1 construct: the intimal surface of fresh bovine aortae was scraped and homogenized; from tissue; host or cells: homogenate of intimal scrapings of fresh bovine aortae
Method: The intimal surface of fresh bovine aortae was scraped in the presence of homogenation buffer composed of 50 mM Tris-HCl, 0.1 mM ethylenediamine tetraacetic acid (EDTA) and 0.1 mM ethyleneglycol bis (beta-aminoethyl ether) (EGTA). Conversion of [^3 H]-L-arginine to [^3 H]-L-citrulline was measured in the homogenates as follows: cell homogenate (50 μl) was incubated in the presence of [^3 H]-L-arginine (10 μM, 5 kBq/tube), NADPH (2 mM), calmodulin (30 nM), tetrahydrobiopterin (5 μM) and calcium (2 mM) for 20 minutes at 37° C. in N-2-hydroxethyl piperazine-N-2-ethane sulfonic acid (HEPES) buffer (pH 7.5). Reactions were stopped by dilution with 1 ml of ice cold HEPES buffer (pH 5.5) containing EGTA (2 mM) and EDTA (2 mM). Reaction mixtures were applied to Dowex 50W (Na^+ form) columns and the eluted [^3 H]-L-citrulline activity was measured by scintillation counting. bNOS activity was measured using similar methods in homogenates of whole rat brains.
For a preparation rich in ecNOS, the intimal surface of fresh bovine aortae was scraped and homogenized. The homogenization buffer was composed of 50 mM tris-HCL, 0.1 mM EDTA, 0.1 mM EGTA and 1 mM phenylmethylsulfonyl chloride (pH 7.4). Cell suspensions were homogenized in the homogenization buffer on ice using a Tissue Tearor 985-370 homogenizer (BioSpec Products, Racine, Wis.). Conversion of [^3 H]-L-arginine to [^3 H]-L-citrulline was measured in the homogenates as described in Example 3 above.

[4] = molecular target: T2, bNOS (Rattus norvegicus, UniProt P29476); assay: bNOS activity in homogenates of whole rat brains; assay type: biochemical
T2 construct: bNOS activity was measured using similar methods in homogenates of whole rat brains; from tissue; host or cells: homogenate of whole rat brains

[5] = molecular target: T3, iNOS (Rattus norvegicus, UniProt Q06518); assay: Inhibition of iNOS activity in tissue homogenates (Table 2); assay type: biochemical; set-up: bNOS in tissue homogenates; from tissue; host or cells: tissue homogenate; conditions: for EC50: iNOS (Table 2)
[6] = tested on: J774.2 macrophages; assay: Nitrite production in immunostimulated J774.2 macrophages (E.coli LPS + murine gamma-interferon, 24 h); assay type: cell-based, mouse
Method: This example illustrates the effect of selected mercapto and seleno derivatives on nitrite production in J774.2 immunostimulated macrophages. The J774.2 mouse macrophage cell line was obtained from the ATCC and was cultured in DMEM with 4×10^-3 M L-glutamine and 10% fetal calf serum. Cells were cultured in 96-well plates with 200 μl culture medium until they reached 60-80% confluence. To induce INOS, fresh culture medium containing E.coli LPS (10 μg/ml) and murine gamma-interferon (IFN)(50 U/ml) was added. Nitrite accumulation in the cell culture medium in the absence or presence of various inhibitors was measured after 24 hours. Nitrite production, an indicator of NO synthesis, was measured in the supernatant of J774.2 macrophages by the Greiss reaction as described in Example 1 above.
This Example illustrates the effect of selected seleno derivatives on endotoxin-induced nitrite formation in J774.2 macrophages. The mouse macrophage cell line J774.2 obtained from the ATCC was cultured in DMEM with 4×10^-3 M L-glutamine and 10% fetal calf serum. Cells were cultured in 96-well plates with 200 μl culture medium until they reached 60-80% confluence. To induce iNOS, fresh culture medium containing E.coli LPS (10 μg/ml) and murine gamma-interferon (IFN)(50 U/ml) were added. Nitrite accumulation in the cell culture medium in the absence or presence of various inhibitors was measured after 24 hours. There was no detectable nitrite production by the J774.2 macrophages in the absence of immunostimulation. However, in the presence of IFN and LPS, nitrite concentration of the medium increased to 17±2 μM in the absence of inhibitor.

[7] = molecular target: T3, iNOS; assay: iNOS activity in lung homogenates from rats treated with bacterial endotoxin; assay type: biochemical; set-up: Lungs were obtained from rats which had been treated with bacterial endotoxin; from tissue; host or cells: lung homogenate from endotoxin-treated rats
Method: This Example illustrates the effect of selected mercapto and seleno derivatives on iNOS activity in lung homogenates prepared from rats treated with endotoxin. […] The homogenization buffer was composed of 50 mM tris-HCL, 0.1 mM EDTA, 0.1 mM EGTA and 1 mM phenylmethylsulfonyl chloride (pH 7.4). Cell suspensions were homogenized in the homogenization buffer on ice using a Tissue Tearor 985-370 homogenizer (BioSpec Products, Racine, Wis.).

[8] = ecNOS (Table 2), read-out: EC50 for inhibition of ecNOS activity in tissue homogenates
[9] = Mus musculus, J774.2, 24 h, read-out: NITRITE (% OF CONTROL)

T2 sequence (P29476 whole entry): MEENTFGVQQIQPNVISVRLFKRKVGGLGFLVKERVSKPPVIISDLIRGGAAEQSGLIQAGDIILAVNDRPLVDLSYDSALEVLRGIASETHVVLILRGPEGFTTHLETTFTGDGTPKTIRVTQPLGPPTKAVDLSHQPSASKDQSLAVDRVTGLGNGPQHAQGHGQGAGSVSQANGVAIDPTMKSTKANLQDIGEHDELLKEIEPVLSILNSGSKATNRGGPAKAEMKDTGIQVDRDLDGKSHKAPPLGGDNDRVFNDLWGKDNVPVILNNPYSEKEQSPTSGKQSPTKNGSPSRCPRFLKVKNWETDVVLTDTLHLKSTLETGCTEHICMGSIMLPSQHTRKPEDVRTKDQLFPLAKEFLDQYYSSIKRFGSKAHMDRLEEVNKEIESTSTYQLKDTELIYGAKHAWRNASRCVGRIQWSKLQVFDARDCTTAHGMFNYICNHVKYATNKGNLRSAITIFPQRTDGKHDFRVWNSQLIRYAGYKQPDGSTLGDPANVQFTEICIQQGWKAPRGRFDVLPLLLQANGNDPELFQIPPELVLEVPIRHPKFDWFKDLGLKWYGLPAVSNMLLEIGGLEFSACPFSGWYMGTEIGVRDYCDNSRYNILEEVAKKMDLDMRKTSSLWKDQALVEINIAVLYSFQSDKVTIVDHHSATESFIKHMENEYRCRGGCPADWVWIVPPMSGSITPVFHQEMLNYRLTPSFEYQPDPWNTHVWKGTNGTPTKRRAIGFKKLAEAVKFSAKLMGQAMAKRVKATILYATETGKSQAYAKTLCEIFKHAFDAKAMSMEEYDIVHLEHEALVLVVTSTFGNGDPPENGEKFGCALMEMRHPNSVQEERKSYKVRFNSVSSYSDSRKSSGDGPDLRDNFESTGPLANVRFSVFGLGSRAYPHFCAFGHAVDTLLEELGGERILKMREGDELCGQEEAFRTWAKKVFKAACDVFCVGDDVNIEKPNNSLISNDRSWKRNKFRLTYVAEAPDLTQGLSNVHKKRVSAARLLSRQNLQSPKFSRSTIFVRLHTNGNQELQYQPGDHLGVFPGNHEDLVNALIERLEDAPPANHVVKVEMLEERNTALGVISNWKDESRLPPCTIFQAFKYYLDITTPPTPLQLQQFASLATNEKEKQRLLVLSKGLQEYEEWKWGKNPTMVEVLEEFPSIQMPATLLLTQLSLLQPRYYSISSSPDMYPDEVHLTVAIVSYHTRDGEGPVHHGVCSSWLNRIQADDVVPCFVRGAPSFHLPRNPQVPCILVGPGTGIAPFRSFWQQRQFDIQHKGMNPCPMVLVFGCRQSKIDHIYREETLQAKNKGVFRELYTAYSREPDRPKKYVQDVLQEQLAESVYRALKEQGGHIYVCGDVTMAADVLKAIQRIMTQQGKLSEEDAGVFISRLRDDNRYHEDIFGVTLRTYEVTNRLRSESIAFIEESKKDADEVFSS

N=C(N)NCCCS [MPG, mercaptopropylguanidine]
EC50 [1]: 15 µM
cellular viability ([2]; 1 mM): a slight reduction in viability was observed
cellular viability ([2]; effective doses 1-100 μM): did not decrease cellular viability
EC50 [3, 8]: 4 µM
EC50 [4]: 80 µM
EC50 [5]: 7 µM

CCSCCNC(=N)N [S-ethyl-MEG]
EC50 [1]: 328 µM
inhibition of nitrite production/accumulation, in words ([1]; immunostimulated J774 macrophages): inhibitors of nitrite accumulation
inhibition of ecNOS activity, in words [3]: less potent on ecNOS
EC50 [3, 8]: 850 µM
EC50 [4]: 460 µM
inhibition of iNOS activity, in words [5]: relative potent inhibitors of iNOS activity
EC50 [5]: 30 µM

CSCCNC(=N)N [S-methyl-MEG, S-methyl-mercaptoethylguanidine]
EC50 [1]: 80 µM
EC50 [3, 8]: 43 µM
EC50 [4]: 8 µM
EC50 [5]: 1.4 µM

N=C(N)NCC[SeH] [SEG, selenoethylguanidine]
EC50 [3]: 600 µM
inhibition of ecNOS activity, in words [3]: inhibited ecNOS activity less strongly than the L-NMA
inhibition of nitrite production, in words ([6]; IFN and LPS): dose-dependent inhibition of nitrite production; also recorded: dose-dependently inhibited nitrite production
potency relative to reference compound L-NMA ([6]; IFN and LPS): higher than the reference compound L-NMA
activity at 1000 µM ([6]; Mus musculus, J774.2, 24 h, inhibitor concentration -3.000 log M (Table 3), read-out: NITRITE (% OF CONTROL)): 0%
activity at 100 µM ([6]; Mus musculus, J774.2, 24 h, inhibitor concentration -4.000 log M (Table 3), read-out: NITRITE (% OF CONTROL)): 7%
activity at 100 µM ([6]; Mus musculus, J774.2, 24 h, inhibitor concentration -4 log M (Table 6), read-out: NITRITE (% OF CONTROL)): 14%
activity at 31.6 µM ([6]; Mus musculus, J774.2, 24 h, inhibitor concentration -4.5 log M (Table 6), read-out: NITRITE (% OF CONTROL)): 28%
activity at 10 µM ([6]; Mus musculus, J774.2, 24 h, inhibitor concentration -5.000 log M (Table 3), read-out: NITRITE (% OF CONTROL)): 50%
activity at 10 µM ([6]; Mus musculus, J774.2, 24 h, inhibitor concentration -5 log M (Table 6), read-out: NITRITE (% OF CONTROL)): 50%
activity at 3.16 µM ([6]; Mus musculus, J774.2, 24 h, inhibitor concentration -5.5 log M (Table 6), read-out: NITRITE (% OF CONTROL)): 94%
activity at 1 µM ([6]; Mus musculus, J774.2, 24 h, inhibitor concentration -6.000 log M (Table 3), read-out: NITRITE (% OF CONTROL)): 90%
activity at 1 µM ([6]; Mus musculus, J774.2, 24 h, inhibitor concentration -6 log M (Table 6), read-out: NITRITE (% OF CONTROL)): 100%
EC50 ([6]; Mus musculus, J774.2, read-out: EC50, inhibition of nitrite production): 10 µM
EC50 [7]: 10 µM
selectivity for iNOS ([7]; iNOS vs ecNOS EC50 values): relative selectivity of SEG and GED for iNOS
iNOS ACTIVITY (%) ([7]; inhibitor concentration -3.000 log M): 0.0000%
iNOS ACTIVITY (%) ([7]; inhibitor concentration -4.000 log M): 15.000%
iNOS ACTIVITY (%) ([7]; inhibitor concentration -5.000 log M): 56.000%
iNOS ACTIVITY (%) ([7]; inhibitor concentration -6.000 log M): 86.000%
iNOS ACTIVITY (%) ([7]; inhibitor concentration -7.000 log M): 100.000%
inhibition of iNOS activity, in words ([7]; lung homogenates, rats treated with endotoxin): inhibits iNOS activity, more strongly

N=C(N)NCCC[SeH] [SPG, selenopropylguanidine]
inhibition of nitrite production, in words ([6]; IFN and LPS): dose-dependently inhibited nitrite production
activity at 1 µM [6, 9]: 100%
activity at 3.16 µM [6, 9]: 73%
activity at 10 µM [6, 9]: 11%
activity at 31.6 µM [6, 9]: 4%
activity at 100 µM [6, 9]: 0%

Reference: patent US5929063A, “Mercapto and seleno derivatives as inhibitors of nitric oxide synthase” (priority 1995, dated 1999)
